What was measured:
PKC theta kinase = PKC theta kinase (Homo sapiens, UniProt Q04759); experiment: PKC theta kinase coupled-enzyme (NADH) Ki assay; type: biochemical; details: 18 nM PKC theta, 240 μM ATP, 30° C., initial rate at 340 nM
Experimental: An assay buffer solution was prepared which consisted of 100 mM HEPES (pH 7.5), 10 mM MgCl2, 25 mM NaCl, 0.1 mM EDTA and 0.01% Brij. An enzyme buffer containing reagents to final assay concentrations of 0.00001% Triton X-100, 200 μg/mL Phosphatidylserine, 20 μg/mL Diacylglycerol, 360 μM NADH, 3 mM phosphoenolpyruvate, 70 μg/mL pyruvate kinase, 24 μg/mL lactate dehydrogenase, 2 mM DTT, 100 μM substrate peptide ([…] SEQ ID NO. 1) and 18 nM PKC theta kinase was prepared in assay buffer. To 60 μL of this enzyme buffer, in a 384 well plate, was added 2 μL of VRT stock solution in DMSO. The mixture was allowed to equilibrate for 10 mins at 30° C. The enzyme reaction was initiated by the addition of 5 μL stock ATP solution prepared in assay buffer to a final assay concentration of 240 μM. Initial rate data was determined from the rate of change of absorbance at 340 nm (corresponding to stoichiometric consumption of NADH) using a Molecular Devices Spectramax plate reader (Sunnyvale, Calif.) over 15 mins at 30° C. For each Ki determination 12 data points covering the VRT concentration range of 0-20 μM were obtained in duplicate (DMSO stocks were prepared from an initial 10 mM VRT stock with subsequent 1:2 serial dilutions). Ki values were calculated from initial rate data by non-linear regression using the Prism software package (Prism 4.0a, Graphpad Software, San Diego, Calif.).

PKC delta kinase = PKC delta kinase (Homo sapiens, UniProt Q05655); experiment: PKC delta kinase coupled-enzyme (NADH) Ki assay; type: biochemical; details: 46 nM PKC delta, 150 μM ATP, 30° C., initial rate at 340 nM
Sequence of PKC delta kinase (Q05655 whole entry): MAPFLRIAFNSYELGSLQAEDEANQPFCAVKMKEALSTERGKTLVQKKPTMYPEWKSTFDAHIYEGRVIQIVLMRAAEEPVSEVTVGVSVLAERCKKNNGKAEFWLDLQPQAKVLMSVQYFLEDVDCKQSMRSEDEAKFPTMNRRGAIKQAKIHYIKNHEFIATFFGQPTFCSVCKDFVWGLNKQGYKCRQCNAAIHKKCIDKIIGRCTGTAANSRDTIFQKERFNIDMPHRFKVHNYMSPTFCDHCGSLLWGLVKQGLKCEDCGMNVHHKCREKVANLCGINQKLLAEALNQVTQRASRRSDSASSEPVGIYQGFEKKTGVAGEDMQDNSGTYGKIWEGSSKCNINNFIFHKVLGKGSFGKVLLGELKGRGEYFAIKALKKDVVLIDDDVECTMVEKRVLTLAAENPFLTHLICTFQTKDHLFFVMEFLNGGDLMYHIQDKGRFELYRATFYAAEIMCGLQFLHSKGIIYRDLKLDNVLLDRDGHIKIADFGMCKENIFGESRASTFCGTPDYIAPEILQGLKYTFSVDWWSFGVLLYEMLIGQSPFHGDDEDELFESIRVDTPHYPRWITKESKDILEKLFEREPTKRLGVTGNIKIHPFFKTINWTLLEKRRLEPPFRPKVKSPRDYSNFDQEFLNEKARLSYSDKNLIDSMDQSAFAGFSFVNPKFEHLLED
Experimental: An assay buffer solution was prepared which consisted of 100 mM HEPES (pH 7.5), 10 mM MgCl2, 25 mM NaCl, 0.1 mM EDTA and 0.01% Brij. An enzyme buffer containing reagents to final assay concentrations of 0.002% Triton X-100, 200 μg/mL Phosphatidylserine, 20 μg/mL Diacylglycerol, 360 μM NADH, 3 mM phosphoenolpyruvate, 70 μg/mL pyruvate kinase, 24 μg/mL lactate dehydrogenase, 2 mM DTT, 150 μM substrate peptide ([…] SEQ ID NO. 2) and 46 nM PKC delta kinase was prepared in assay buffer. To 16 μL of this enzyme buffer, in a 384 well plate, was added 1 μL of VRT stock solution in DMSO. The mixture was allowed to equilibrate for 10 mins at 30° C. The enzyme reaction was initiated by the addition of 16 μL stock ATP solution prepared in assay buffer to a final assay concentration of 150 μM. Initial rate data was determined from the rate of change of absorbance at 340 nm (corresponding to stoichiometric consumption of NADH) using a Molecular Devices Spectramax plate reader (Sunnyvale, Calif.) over 15 mins at 30° C. For each Ki determination 12 data points covering the VRT concentration range of 0-20 μM were obtained in duplicate (DMSO stocks were prepared from an initial 10 mM VRT stock with subsequent 1:2 serial dilutions). Ki values were calculated from initial rate data by non-linear regression using the Prism software package (Prism 4.0a, Graphpad Software, San Diego, Calif.).

Sequence of PKC theta kinase (Q04759 whole entry): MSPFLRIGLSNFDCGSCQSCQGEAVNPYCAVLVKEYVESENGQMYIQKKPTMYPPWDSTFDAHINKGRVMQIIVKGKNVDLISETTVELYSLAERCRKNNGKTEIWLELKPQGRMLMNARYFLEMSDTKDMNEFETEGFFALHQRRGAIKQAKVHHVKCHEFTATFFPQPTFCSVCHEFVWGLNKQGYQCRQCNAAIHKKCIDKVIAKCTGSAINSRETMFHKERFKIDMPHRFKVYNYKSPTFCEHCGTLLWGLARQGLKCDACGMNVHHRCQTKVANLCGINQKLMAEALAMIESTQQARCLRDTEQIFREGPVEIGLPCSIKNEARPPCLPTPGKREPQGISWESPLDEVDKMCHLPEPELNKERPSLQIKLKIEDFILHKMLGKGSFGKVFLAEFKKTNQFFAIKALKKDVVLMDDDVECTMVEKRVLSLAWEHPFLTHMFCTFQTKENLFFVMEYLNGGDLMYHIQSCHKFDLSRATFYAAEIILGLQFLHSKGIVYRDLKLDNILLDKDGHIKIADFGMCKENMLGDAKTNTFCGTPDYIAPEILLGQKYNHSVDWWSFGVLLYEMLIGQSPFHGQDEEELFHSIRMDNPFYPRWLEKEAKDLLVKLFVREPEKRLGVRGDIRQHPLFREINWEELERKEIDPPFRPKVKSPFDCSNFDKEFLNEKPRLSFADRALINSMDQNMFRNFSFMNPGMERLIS

| SMILES | Ki (PKC theta kinase) | Ki (PKC delta kinase) |
| --- | --- | --- |
| OC1(C2CN(c3nc(-c4n[nH]c5ncccc45)c(F)cc3F)CCN2)CCC1 (centres unmarked) [Compound 2] | < 1 nM | < 500 nM |
| CC(C)(O)[C@@H]1CN(c2nc(-c3n[nH]c4ncccc34)c(F)cc2F)CCN1 [Compound 1, (S)-2-(4-(3,5-difluoro-6-(1H-pyrazolo[3,4-b]pyridin-3-yl)pyridin-2-yl)piperazin-2-yl)propan-2-ol] | < 50 nM | < 500 nM |
| OC[C@@H]1CN(c2nc(-c3n[nH]c4ncccc34)c(F)cc2Cl)CCN1 [Compound 9] | < 50 nM | < 50 nM |
| OC[C@@H]1CN(c2nc(-c3n[nH]c4ncccc34)c(F)cc2F)CCN1 [Compound 10] | < 500 nM | > 1250 nM |
| CC(C)C[C@@H]1CN(c2nc(-c3n[nH]c4ncccc34)c(C#N)cc2F)CCN1 [Compound 11, (R)-5-fluoro-6-(3-isobutylpiperazin-1-yl)-2-(1H-pyrazolo[3,4-b]pyridin-3-yl)nicotinonitrile] | < 2800 nM | > 1250 nM |
| OC1([C@@H]2CN(c3nc(-c4n[nH]c5ncccc45)c(F)cc3Cl)CCN2)CC1 [Compound 4] | < 1 nM | < 50 nM |
| OC1(C2CN(c3nc(-c4n[nH]c5ncccc45)c(F)cc3Cl)CCN2)CCC1 (centres unmarked) [Compound 6] | < 1 nM | < 50 nM |
| CCC(O)(CC)[C@@H]1CN(c2nc(-c3n[nH]c4ncccc34)c(F)cc2F)CCN1 [Compound 3] | < 1 nM | < 500 nM |
| CC(C)C[C@@H]1CN(c2nc(-c3n[nH]c4ncccc34)c(F)cc2F)CCN1 [Compound 7] | < 50 nM | – |
| CC(C)(O)[C@@H]1CN(c2nc(-c3n[nH]c4ncccc34)c(F)cc2Cl)CCN1 [Compound 5] | < 1 nM | < 50 nM |
| CC(C)C[C@@H]1CN(c2nc(-c3n[nH]c4ncccc34)c(F)cc2Cl)CCN1 [Compound 8] | < 50 nM | – |

Source: patent publication US20130053395A1, “PYRAZOLOPYRIDINE KINASE INHIBITORS” (VERTEX PHARMACEUTICALS INCORPORATED, priority 2010, published 2013)
